According to publication PMC10914731, “Homo-BacPROTAC-induced degradation of ClpC1 as a strategy against drug-resistant mycobacteria” (Nature Communications, 2024):
Converted amounts (≈) assume the structure as drawn. “And” between values parts separate entries of the source, which are not always exact repeats. Identical values can stand only once. *1 amine or outer side, *2 acyl side, *3 side chain or, on linkers, in order; H or OH if unused. Where a SMILES comes first, the peptide text is derived from it. [ ]: non-standard residue; d: D form. X1 = C#CCn1cc(C[C@H](N[*:1])C(=O)[*:2])c2ccccc21; NMeLeu(5-OH,4R) = CN[C@@H](C[C@@H](C)CO)C(=O)O; Phe(βR-OMe) = CO[C@H](c1ccccc1)[C@H](N)C(=O)O; Trp(1-Me) = Cn1cc(C[C@H](N)C(=O)O)c2ccccc21; NMeL = CN[C@@H](CC(C)C)C(=O)O; Pra = C#CC[C@H](N)C(=O)O

Test system: Mtb (RpoB S450L) ATCC 35838
Assay type: cell-based, Mycobacterium tuberculosis

## COC(c1ccccc1)C1NC(=O)C(C)NC(=O)C(CC(C)CO)N(C)C(=O)C(Cc2cn(Cc3cn(CCOCCOCCOCCOCCn4cc(Cn5cc(CC6NC(=O)C(C(C)C)NC(=O)C(CC(C)C)N(C)C(=O)C(C(C)C)NC(=O)C(C(OC)c7ccccc7)NC(=O)C(C)NC(=O)C(CC(C)CO)N(C)C6=O)c6ccccc65)nn4)nn3)c3ccccc23)NC(=O)C(C(C)C)NC(=O)C(CC(C)C)N(C)C(=O)C(C(C)C)NC1=O (stereo not shown) [Compound 8]
  MIC: 0.2 ± 0.0 µM (≈ 0.434 µg/mL)

## NNC(=O)c1ccncc1 [Isoniazid]
  MIC: 0.5 ± 0.0 µM and 0.45 µM

## C#CC[C@@H]1NC(=O)[C@H](CC(C)C)N(C)C(=O)[C@H](C(C)C)NC(=O)[C@H]([C@H](OC)c2ccccc2)NC(=O)[C@H](C)NC(=O)[C@H](C[C@@H](C)CO)N(C)C(=O)[C@H](Cc2cn(C)c3ccccc23)NC1=O [Compound 10] (cyclo(A[Phe(βR-OMe)]V[NMeL][Pra][Trp(1-Me)][NMeLeu(5-OH,4R)]))
  MIC: 1.6 ± 0.0 µM (≈ 1.46 µg/mL)

## CO[C@H]1/C=C/O[C@@]2(C)Oc3c(C)c(O)c4c(O)c(c(/C=N/N5CCN(C)CC5)c(O)c4c3C2=O)NC(=O)/C(C)=C\C=C\[C@H](C)[C@H](O)[C@@H](C)[C@@H](O)[C@@H](C)[C@H](OC(C)=O)[C@@H]1C [Rifampicin, reference compound]
  MIC: >38.9 µM and >38.88 µM

## COC(c1ccccc1)C1NC(=O)C(C)NC(=O)C(CC(C)CO)N(C)C(=O)C(Cc2cn(C)c3ccccc23)NC(=O)C(Cc2cn(CCCCCn3cc(CC4NC(=O)C(CC(C)C)N(C)C(=O)C(C(C)C)NC(=O)C(C(OC)c5ccccc5)NC(=O)C(C)NC(=O)C(CC(C)CO)N(C)C(=O)C(Cc5cn(C)c6ccccc56)NC4=O)nn3)nn2)NC(=O)C(CC(C)C)N(C)C(=O)C(C(C)C)NC1=O (stereo not shown) [Compound 12]
  MIC: 0.2 ± 0.0 µM (≈ 0.396 µg/mL)

## COc1c(N2C[C@@H]3CCCN[C@@H]3C2)c(F)cc2c(=O)c(C(=O)O)cn(C3CC3)c12 [Moxifloxacin, reference compound]
  MIC: 0.3 ± 0.0 µM and 0.31 µM

## C#CCn1cc(C[C@@H]2NC(=O)[C@H](C(C)C)NC(=O)[C@H](CC(C)C)N(C)C(=O)[C@H](C(C)C)NC(=O)[C@H]([C@H](OC)c3ccccc3)NC(=O)[C@H](C)NC(=O)[C@H](C[C@@H](C)CO)N(C)C2=O)c2ccccc21 [Compound 5] (cyclo(A[Phe(βR-OMe)]V[NMeL]V[X1][NMeLeu(5-OH,4R)]))
  MIC: 0.4 ± 0.0 µM (≈ 0.376 µg/mL)
